# Experiments:
# [1] = literature, cited from earlier work
# [2] = literature; cited from earlier work
# [3] = system: Spontaneously hypertensive male rats; assay: Antihypertensive activity in spontaneously hypertensive rats (oral, 10 successive days); assay type: in vivo, rat; conditions: for Fall in blood pressure / Blood pressure: 10 mg/kg/day p.o.
# Experimental: Spontaneously hypertensive male rats [SHR, Jap. Circ. J. 27, 282-93 (1963)] being 18-23 weeks of age and having systolic blood pressure levels of 170-190 mmHg were used. The test compounds were each suspended in a 0.5% aqueous tragacanth solution and administered orally in a dose of 10 mg/kg/day by stomach tube to SHR once a day for 10 successive days. The blood pressure of conscious SHR was measured prior to dosing and 5 hours after administration. It was also measured once daily over a period of 7 days after the end of the treatment period. The measurement of the blood pressure was made by a plethysmographtail method [Jap. Circ. J. 27, 282-93 (1963)].
# Male Wistar rats [4] = assay: Effect on blood glucose (a), oral; conditions: 300 mg/kg p.o.; for Effect on blood glucose level: rats
# Experimental: (a) Male Wistar rats weighing 190-210 g were used. Each test compound was suspended in a concentration of 150 mg/ml in a 0.5% aqueous tragacanth solution and orally administered at a dose of 300 mg/kg by the stomach tube.
# Male Wistar rats [5] = assay: Effect on blood glucose (b), intraperitoneal; conditions: 300 mg/kg i.p.; for Effect on blood glucose level: rats
# Experimental: (b) Male Wistar rats weighing 260-285 g were used. […] 4 ml/kg of the above solution of each test compound was intraperitoneally administered to each animal. The blood samples were taken prior to dosing and 1, 3 and 6 hours after the administration and the plasma glucose levels were determined in a similar manner to that described in (a).
# Male Wistar rats [6] = assay: Effect on urine volume and electrolyte excretion; assay type: in vivo, rat; conditions: for Cl- / K+ / Na+ / Na+/K+: urinary excretion over 5 hours; for Urine volume: 5 hours
# Experimental: Male Wistar rats weighing 220 to 260 g were used. Each test compound was suspended in a solution of tragacanth dissolved in a concentration of 0.5% in a 0.9% saline solution so that the volume of the resulting suspension to be administered would be always 25 ml/Kg. The test compounds were administered orally by the stomach tube to the animals at the prescribed doses. The animals were then placed in a metabolic cage and the urine was collected over a period of 5 hours. The total amount of sodium, potassium and chloride excreted was determined by Auto-Analyzer, made by Technicon Instruments Corporation.
# [7] = Toxicity (LD50), JCL-SD rats; conditions: rat, in vivo
# Description: (§1) Male and female JCL-ICR strain mice, weighing 20-30 g (each group: 8 mice), and male and female JCL-SD strain rats, weighing 150-250 g (each group: 8 rats) were used.
# [8] = Toxicity (LD50), JCL-ICR mice; conditions: mouse, in vivo
# Description: as §1
# [9] = system: Spontaneously hypertensive rats; assay: Glucose tolerance test; conditions: 300 mg/kg p.o. once a day, 22 days; 1.25 g/kg oral glucose
# Experimental: Spontaneously hypertensive rats weighing 360 to 400 g were used. Each of the test compounds was suspended in a 0.5% aqueous tragacanth solution, and orally administered to the animals at a dose of 300 mg/kg once a day for 22 consecutive days. The control group was given only the 0.5% aqueous tragacanth solution. After the final administration, the animals were caused to fast for 20 hours, and subjected to a glucose tolerance test by an oral application of 1.25 g/kg of glucose.
# [10] = day 0, 5 hours after administration
# [11] = day 2, 5 hours after administration
# [12] = day 4, 5 hours after administration
# [13] = day 6, 5 hours after administration
# [14] = day 8, 5 hours after administration
# [15] = day 10, 24 hours after the final treatment
# [16] = day 14, 120 hours after the final treatment
# [17] = iv, female, dissolved with stoichiometric NaOH, 95% confidence limits in parentheses
# [18] = iv, male, dissolved with stoichiometric NaOH, 95% confidence limits in parentheses
# [19] = po, female, suspended in 0.5% tragacanth
# [20] = po, male, suspended in 0.5% tragacanth
# [21] = sc, female, dissolved with stoichiometric NaOH
# [22] = sc, male, dissolved with stoichiometric NaOH
structure (smiles),measurement,setting,value
"O=S1(=O)NC(N2CCOCC2)=Nc2cc(C(F)(F)F)ccc21 [3-morpholino-6-trifluoromethyl-2H-1,2,4-benzothiadiazine 1,1-dioxide]",Antihypertensive activity,[1],no antihypertensive activity
"NC1=Nc2cc(C(F)(F)F)ccc2S(=O)(=O)N1 [6-trifluoromethyl-3-amino-2H-1,2,4-benzothiadiazine 1,1-dioxide]",Antihypertensive activity,[1],substantially the same degree of antihypertensive activity as diazoxide
same,Antidiuretic activity,[2],antidiuretic activity similar to that of diazoxide
"COc1cc2c(cc1OC)S(=O)(=O)NC(N1CCN(C)CC1)=N2 [Compound 1, 6,7-Dimethoxy-3-(4-methyl-1-piperazinyl)-2H-1,2,4-benzothiadiazine 1,1-dioxide]",Antihypertensive activity,[1],no antihypertensive activity
same,Fall in blood pressure,[3],did not cause any significant fall in blood pressure
same,Blood pressure,[3]; [10],188 mm Hg
same,Blood pressure,"[3]; day 0, prior to dosing (0)",189 mm Hg
same,Blood pressure,[3]; [11],186 mm Hg
same,Blood pressure,"[3]; day 2, prior to dosing (0)",187 mm Hg
same,Blood pressure,[3]; [12],184 mm Hg
same,Blood pressure,"[3]; day 4, prior to dosing (0)",185 mm Hg
same,Blood pressure,[3]; [13],184 mm Hg
same,Blood pressure,"[3]; day 6, prior to dosing (0)",187 mm Hg
same,Blood pressure,[3]; [14],187 mm Hg
same,Blood pressure,"[3]; day 8, prior to dosing (0)",189 mm Hg
same,Blood pressure,[3]; [15],187 mm Hg
same,Blood pressure,[3]; [16],188 mm Hg
"O=S1(=O)NC(N2CCCCC2)=Nc2ccccc21 [Compound 2, 3-Piperidino-2H-1,2,4-benzothiadiazine 1,1-dioxide]",Antihypertensive activity in intravenous administration,[1]; intravenous,slight antihypertensive activity
same,Fall in blood pressure,[3],did not cause any significant fall in blood pressure
same,Blood pressure,[3]; [10],180 mm Hg
same,Blood pressure,"[3]; day 0, prior to dosing (0)",187 mm Hg
same,Blood pressure,[3]; [11],181 mm Hg
same,Blood pressure,"[3]; day 2, prior to dosing (0)",186 mm Hg
same,Blood pressure,[3]; [12],183 mm Hg
same,Blood pressure,"[3]; day 4, prior to dosing (0)",182 mm Hg
same,Blood pressure,[3]; [13],186 mm Hg
same,Blood pressure,"[3]; day 6, prior to dosing (0)",186 mm Hg
same,Blood pressure,[3]; [14],183 mm Hg
same,Blood pressure,"[3]; day 8, prior to dosing (0)",186 mm Hg
same,Blood pressure,[3]; [15],184 mm Hg
same,Blood pressure,[3]; [16],182 mm Hg
same,Antihypertensive activity in oral administration,[3]; oral,does not show antihypertensive activity
"NS(=O)(=O)c1cc2c(cc1Cl)NCNS2(=O)=O [Compound 4, Hydrochlorothiazide]",Blood glucose,Male Wistar rats [4]; 0 hr (prior to dosing),104 mg/dL
same,Blood glucose,Male Wistar rats [4]; 1 hr,114 mg/dL
same,Blood glucose,Male Wistar rats [4]; 3 hr,111 mg/dL
same,Blood glucose,Male Wistar rats [4]; 6 hr,112 mg/dL
same,Blood glucose,Male Wistar rats [4]; 10 hr,113 mg/dL
same,Blood glucose,Male Wistar rats [5]; 0 hr (prior to dosing),100 mg/dL
same,Blood glucose,Male Wistar rats [5]; 1 hr,257 mg/dL
same,Blood glucose,Male Wistar rats [5]; 3 hr,220 mg/dL
same,Blood glucose,Male Wistar rats [5]; 6 hr,144 mg/dL
same,Change in Na+/K+,Male Wistar rats [6]; 1 mg/kg p.o.,marked increase
same,Cl-,Male Wistar rats [6]; 1.0 mg/kg p.o.,1.38 mEq
same,Blood pressure,[3]; [10],168 mm Hg
same,Blood pressure,"[3]; day 0, prior to dosing (0)",172 mm Hg
same,Blood pressure,[3]; [11],152 mm Hg
same,Blood pressure,"[3]; day 2, prior to dosing (0)",163 mm Hg
same,Blood pressure,[3]; [12],150 mm Hg
same,Blood pressure,"[3]; day 4, prior to dosing (0)",158 mm Hg
same,Blood pressure,[3]; [13],138 mm Hg
same,Blood pressure,"[3]; day 6, prior to dosing (0)",151 mm Hg
same,Blood pressure,[3]; [14],140 mm Hg
same,Blood pressure,"[3]; day 8, prior to dosing (0)",152 mm Hg
same,Blood pressure,[3]; [15],153 mm Hg
same,Blood pressure,[3]; [16],165 mm Hg
"CN1CCN(C2=Nc3ccc(Cl)cc3S(=O)(=O)N2)CC1 [Compound A, 7-chloro-3-(4-methyl-1-piperazinyl)-2H-1,2,4-benzothiadiazine 1,1-dioxide]",Blood glucose,Male Wistar rats [4]; 0 hr (prior to dosing),105 mg/dL
same,Blood glucose,Male Wistar rats [4]; 1 hr,105 mg/dL
same,Blood glucose,Male Wistar rats [4]; 3 hr,107 mg/dL
same,Blood glucose,Male Wistar rats [4]; 6 hr,103 mg/dL
same,Blood glucose,Male Wistar rats [4]; 10 hr,110 mg/dL
same,Effect on blood glucose level,Male Wistar rats [4],substantially no effect
same,LD50 at 168 h,[7]; [17],740 mg/kg
same,LD50 at 168 h,[7]; [18],551 mg/kg
same,LD50 at 168 h,[7]; [19],> 5000 mg/kg
same,LD50 at 168 h,[7]; [20],> 5000 mg/kg
same,LD50 at 168 h,[7]; [21],> 1000 mg/kg
same,LD50 at 168 h,[7]; [22],> 1000 mg/kg
same,LD50 at 168 h,[8]; [17],242 mg/kg
same,LD50 at 168 h,[8]; [18],267 mg/kg
same,LD50 at 168 h,[8]; [19],> 5000 mg/kg
same,LD50 at 168 h,[8]; [20],> 5000 mg/kg
same,LD50 at 168 h,[8]; [21],> 2410 mg/kg
same,LD50 at 168 h,[8]; [22],> 2410 mg/kg
same,Blood glucose,Male Wistar rats [5]; 0 hr (prior to dosing),94 mg/dL
same,Blood glucose,Male Wistar rats [5]; 1 hr,102 mg/dL
same,Blood glucose,Male Wistar rats [5]; 3 hr,103 mg/dL
same,Blood glucose,Male Wistar rats [5]; 6 hr,111 mg/dL
same,Effect on blood glucose level,Male Wistar rats [5],substantially no effect
same,Change in Na+/K+,Male Wistar rats [6]; 100 mg/kg p.o.,some increase
same,Change in electrolyte excretion,Male Wistar rats [6]; 100 mg/kg p.o.,no significant change
same,Change in urine volume,Male Wistar rats [6]; 100 mg/kg p.o.,no significant change
same,Urine volume,Male Wistar rats [6]; 100 mg/kg p.o.,3.58 mL
same,Cl-,Male Wistar rats [6]; 100 mg/kg p.o.,0.90 mEq
same,K+,Male Wistar rats [6]; 100 mg/kg p.o.,0.40 mEq
same,Na+,Male Wistar rats [6]; 100 mg/kg p.o.,0.78 mEq
same,Na+/K+,Male Wistar rats [6]; 100 mg/kg p.o.,1.93
same,Blood pressure,[3]; [10],172 mm Hg
same,Blood pressure,"[3]; day 0, prior to dosing (0)",172 mm Hg
same,Blood pressure,[3]; [11],155 mm Hg
same,Blood pressure,"[3]; day 2, prior to dosing (0)",167 mm Hg
same,Blood pressure,[3]; [12],151 mm Hg
same,Blood pressure,"[3]; day 4, prior to dosing (0)",158 mm Hg
same,Blood pressure,[3]; [13],131 mm Hg
same,Blood pressure,"[3]; day 6, prior to dosing (0)",144 mm Hg
same,Blood pressure,[3]; [14],135 mm Hg
same,Blood pressure,"[3]; day 8, prior to dosing (0)",143 mm Hg
same,Blood pressure,[3]; [15],139 mm Hg
same,Blood pressure,[3]; [16],165 mm Hg
same,"Blood glucose levels after application of glucose, compared with control group",[9],same glucose tolerance pattern as the control group
same,Glucose tolerance,[9],no abnormality was observed in glucose tolerance
"CN1CCN(C2=Nc3ccccc3S(=O)(=O)N2)CC1 [Compound B, 3-(4-methyl-1-piperazinyl)-2H-1,2,4-benzothiadiazine 1,1-dioxide]",Blood glucose,Male Wistar rats [4]; 0 hr (prior to dosing),106 mg/dL
same,Blood glucose,Male Wistar rats [4]; 1 hr,107 mg/dL
same,Blood glucose,Male Wistar rats [4]; 3 hr,109 mg/dL
same,Blood glucose,Male Wistar rats [4]; 6 hr,104 mg/dL
same,Blood glucose,Male Wistar rats [4]; 10 hr,110 mg/dL
same,Effect on blood glucose level,Male Wistar rats [4],substantially no effect
same,Blood glucose,Male Wistar rats [5]; 0 hr (prior to dosing),100 mg/dL
same,Blood glucose,Male Wistar rats [5]; 1 hr,111 mg/dL
same,Blood glucose,Male Wistar rats [5]; 3 hr,115 mg/dL
same,Blood glucose,Male Wistar rats [5]; 6 hr,125 mg/dL
same,Effect on blood glucose level,Male Wistar rats [5],substantially no effect
same,Change in electrolyte excretion,Male Wistar rats [6]; 100 mg/kg p.o.,no significant change
same,Change in urine volume,Male Wistar rats [6]; 100 mg/kg p.o.,no significant change
same,Urine volume,Male Wistar rats [6]; 100 mg/kg p.o.,3.06 mL
same,Cl-,Male Wistar rats [6]; 100 mg/kg p.o.,0.89 mEq
same,K+,Male Wistar rats [6]; 100 mg/kg p.o.,0.48 mEq
same,Na+,Male Wistar rats [6]; 100 mg/kg p.o.,0.64 mEq
same,Na+/K+,Male Wistar rats [6]; 100 mg/kg p.o.,1.34
same,Blood pressure,[3]; [10],167 mm Hg
same,Blood pressure,"[3]; day 0, prior to dosing (0)",169 mm Hg
same,Blood pressure,[3]; [11],161 mm Hg
same,Blood pressure,"[3]; day 2, prior to dosing (0)",167 mm Hg
same,Blood pressure,[3]; [12],154 mm Hg
same,Blood pressure,"[3]; day 4, prior to dosing (0)",159 mm Hg
same,Blood pressure,[3]; [13],144 mm Hg
same,Blood pressure,"[3]; day 6, prior to dosing (0)",160 mm Hg
same,Blood pressure,[3]; [14],136 mm Hg
same,Blood pressure,"[3]; day 8, prior to dosing (0)",149 mm Hg
same,Blood pressure,[3]; [15],146 mm Hg
same,Blood pressure,[3]; [16],166 mm Hg
